{"source": "patent US11053282B2", "about": "“Peptoid affinity ligands” (MIKE-ANN, LLC, priority 2016, dated 2021)", "molecular_target": "polyclonal human IgG", "test": "Adsorption isotherm of peptoid affinity resins against polyclonal human IgG", "format": "binding", "conditions": "IgG in PBS, 30 minutes; for Kd: affinity constant from hyperbola fit of adsorption isotherm, peptoid conjugated to chromatographic resin, read-out: Kd × 10^−6", "protocol": "The affinity for the peptoid-resin combinations was determined by measuring the adsorption isotherm of each resin against polyclonal human IgG (Pakimna et al., J Applied Sci., 12(11): 1136-1141, 2012). Briefly, 0.050 mL of 50% resin slurry was pipetted into 6 individual wells of a 96-well filter plate (0.45 micron, PVDF, Harvard Apparatus). The resin was washed with 2×250 μL PBS using a vacuum manifold. To an individual well, 0.25 mL of a human polyclonal IgG solution at different concentrations (10, 5, 2.5, 1.25, 0.625, and 0.3125 mg/mL) was added. The resin/IgG suspension was agitated gently on a rocking table for 30 minutes. The fluid was then collected via vacuum, and the resin was washed with 0.25 mL of PBS. The filtrate and wash were then analyzed by the BCA assay to determine the residual IgG concentration relative to the starting concentration of the solution.\nThe equilibrium concentrations were then used to determine the capacity of the resin at each IgG concentration using the following formula: q=Volumesample×(Initial Concentration−Equilibrium Concentration)/Volumeresin\nA plot of q versus equilibrium concentration was generated and the data fit with a hyperbola to determine the affinity constant (Kd) and the maximum capacity (qmax) according to the below formula, where C=the equilibrium concentration of antibody in solution: q=qmax×C/(kd+C) Typical adsorption isotherm is shown in FIG. 2. Tabulated Kd and qmax data is found in Table 2.", "key": {"[1]": {"conditions": "maximum capacity (qmax) of resin from hyperbola fit of adsorption isotherm"}}, "note": "*1 amine or outer side, *2 acyl side, *3 side chain or, on linkers, in order; H or OH if unused. Where a SMILES comes first, the peptide text is derived from it. [ ]: non-standard residue; d: D form. ξ: configuration not given here. Gly(N(CH2)2(3-indolyl)) = O=C(O)CNCCc1c[nH]c2ccccc12; NGly(CH2(3-pyridyl)) = O=C(O)CNCc1cccnc1; ξW = NC(Cc1c[nH]c2ccccc12)C(=O)O; Gly(N(CH2)3NH2) = NCCCNCC(=O)O; Cit = NC(=O)NCCC[CH](N)C(=O)O; Cysteamide = C(CS[*:3])N[*:1]; ξCit = NC(=O)NCCCC(N)C(=O)O; ξH = NC(Cc1c[nH]cn1)C(=O)O; Nphe = O=C(O)CNCc1ccccc1; NPrGly = CCCNCC(=O)O; ξV = CC(C)C(N)C(=O)O", "data": [{"smiles": "NC(=O)NCCCC(N)C(=O)N(CC(=O)N(CCc1c[nH]c2ccccc12)CC(=O)N(CC(=O)NCCS)Cc1cccnc1)Cc1cccnc1", "note": "(stereo not shown) [Ligand 16-84-3] (H-[ξCit][NGly(CH2(3-pyridyl))][Gly(N(CH2)2(3-indolyl))][NGly(CH2(3-pyridyl))]-Cysteamide)", "values": [{"measurement": "Kd", "result": 4.9, "unit": "µM"}, {"measurement": "Qmax", "setting": "[1]", "result": 56, "unit": "mg/mL"}]}, {"smiles": "NC(=O)NCCCC(N)C(=O)N(CC(=O)N(CCc1c[nH]c2ccccc12)CC(=O)NCC(=O)N(CCc1c[nH]c2ccccc12)CC(=O)NCCS)Cc1cccnc1", "note": "(stereo not shown) [Ligand 12-65-5] (H-[ξCit][NGly(CH2(3-pyridyl))][Gly(N(CH2)2(3-indolyl))]G[Gly(N(CH2)2(3-indolyl))]-Cysteamide)", "values": [{"measurement": "Kd", "result": 3.6, "unit": "µM"}, {"measurement": "Qmax", "setting": "[1]", "result": 64, "unit": "mg/mL"}]}, {"smiles": "NC(=O)NCCCC(N)C(=O)N(CCc1c[nH]c2ccccc12)CC(=O)N(CC(=O)N(CCc1c[nH]c2ccccc12)CC(=O)NCCS)Cc1cccnc1", "note": "(stereo not shown) [Ligand 16-83-9] (H-[ξCit][Gly(N(CH2)2(3-indolyl))][NGly(CH2(3-pyridyl))][Gly(N(CH2)2(3-indolyl))]-Cysteamide)", "values": [{"measurement": "Kd", "result": 4.9, "unit": "µM"}, {"measurement": "Qmax", "setting": "[1]", "result": 52, "unit": "mg/mL"}]}, {"smiles": "NC(=O)NCCCC(NC(=O)CN(CCc1c[nH]c2ccccc12)C(=O)CNCc1cccnc1)C(=O)N(CCc1c[nH]c2ccccc12)CC(=O)NCCS", "note": "(stereo not shown) [Ligand 16-81-4] (H-[NGly(CH2(3-pyridyl))][Gly(N(CH2)2(3-indolyl))][ξCit][Gly(N(CH2)2(3-indolyl))]-Cysteamide)", "values": [{"measurement": "Kd", "result": 2.9, "unit": "µM"}, {"measurement": "Qmax", "setting": "[1]", "result": 64, "unit": "mg/mL"}]}, {"smiles": "CC(C)C(NC(=O)CN(CCc1c[nH]c2ccccc12)C(=O)CNC(=O)CN(CCCN)C(=O)CN(CCc1c[nH]c2ccccc12)C(=O)CNCc1cccnc1)C(=O)NCCS", "note": "(stereo not shown) [Ligand 16-83-6] (H-[NGly(CH2(3-pyridyl))][Gly(N(CH2)2(3-indolyl))][Gly(N(CH2)3NH2)]G[Gly(N(CH2)2(3-indolyl))][ξV]-Cysteamide)", "values": [{"measurement": "Kd", "result": 4.6, "unit": "µM"}, {"measurement": "Qmax", "setting": "[1]", "result": 56, "unit": "mg/mL"}]}, {"smiles": "NC(=O)NCCCC(NC(=O)CN(Cc1ccccc1)C(=O)CNCc1cccnc1)C(=O)NC(CCCNC(N)=O)C(=O)N(CC(=O)NCCS)Cc1cccnc1", "note": "(stereo not shown) [Ligand 12-65-8] (H-[NGly(CH2(3-pyridyl))][Nphe][Cit][Cit][NGly(CH2(3-pyridyl))]-Cysteamide; configuration not given here)", "values": [{"measurement": "Kd", "result": 3.6, "unit": "µM"}, {"measurement": "Qmax (mg/mL)", "setting": "[1]", "result": "57.", "unit": "mg/mL"}]}, {"smiles": "NC(=O)NCCCC(NC(=O)CNCCc1c[nH]c2ccccc12)C(=O)N(CCc1c[nH]c2ccccc12)CC(=O)N(CC(=O)NCCS)Cc1cccnc1", "note": "(stereo not shown) [Ligand 16-83-7] (H-[Gly(N(CH2)2(3-indolyl))][ξCit][Gly(N(CH2)2(3-indolyl))][NGly(CH2(3-pyridyl))]-Cysteamide)", "values": [{"measurement": "Kd", "result": 7.7, "unit": "µM"}, {"measurement": "Qmax", "setting": "[1]", "result": 53, "unit": "mg/mL"}]}, {"smiles": "CCCN(CC(=O)NCCS)C(=O)C(Cc1c[nH]c2ccccc12)NC(=O)CNC(=O)CN(CCCN)C(=O)CN(CCc1c[nH]c2ccccc12)C(=O)CNCc1cccnc1", "note": "(stereo not shown) [Ligand 16-83-2] (H-[NGly(CH2(3-pyridyl))][Gly(N(CH2)2(3-indolyl))][Gly(N(CH2)3NH2)]G[ξW][NPrGly]-Cysteamide)", "values": [{"measurement": "Kd", "result": 5.3, "unit": "µM"}, {"measurement": "Qmax", "setting": "[1]", "result": 49, "unit": "mg/mL"}]}, {"smiles": "CCCN(CC(=O)NCCS)C(=O)CN(CCc1c[nH]c2ccccc12)C(=O)CNC(=O)C(CCCNC(N)=O)NC(=O)CN(CCc1c[nH]c2ccccc12)C(=O)CNCc1cccnc1", "note": "(stereo not shown) [Ligand 12-65-1] (H-[NGly(CH2(3-pyridyl))][Gly(N(CH2)2(3-indolyl))][ξCit]G[Gly(N(CH2)2(3-indolyl))][NPrGly]-Cysteamide)", "values": [{"measurement": "Kd", "result": 7.9, "unit": "µM"}, {"measurement": "Qmax", "setting": "[1]", "result": 65, "unit": "mg/mL"}]}, {"smiles": "NC(=O)NCCCC(NC(=O)CN(Cc1ccccc1)C(=O)CNCc1cccnc1)C(=O)NC(CCCNC(N)=O)C(=O)NCCS", "note": "(stereo not shown) [Ligand 12-55-6] (H-[NGly(CH2(3-pyridyl))][Nphe][Cit][Cit]-Cysteamide; configuration not given here)", "values": [{"measurement": "Kd", "result": 33, "unit": "µM"}, {"measurement": "Qmax", "setting": "[1]", "result": 97, "unit": "mg/mL"}]}, {"smiles": "CCCN(CC(=O)NCCS)C(=O)CN(CCc1c[nH]c2ccccc12)C(=O)CNC(=O)CN(CCCN)C(=O)C(Cc1c[nH]c2ccccc12)NC(=O)CNCc1cccnc1", "note": "(stereo not shown) [Ligand 16-83-3] (H-[NGly(CH2(3-pyridyl))][ξW][Gly(N(CH2)3NH2)]G[Gly(N(CH2)2(3-indolyl))][NPrGly]-Cysteamide)", "values": [{"measurement": "Kd", "result": 7.3, "unit": "µM"}, {"measurement": "Qmax", "setting": "[1]", "result": 51, "unit": "mg/mL"}]}, {"smiles": "CCCN(CC(=O)NCCS)C(=O)CN(CCc1c[nH]c2ccccc12)C(=O)CNC(=O)C(CCCNC(N)=O)NC(=O)CN(CCc1c[nH]c2ccccc12)C(=O)[C@@H](N)Cc1c[nH]cn1", "note": "(stereo partly shown) [Ligand 12-65-2] (H-H[Gly(N(CH2)2(3-indolyl))][ξCit]G[Gly(N(CH2)2(3-indolyl))][NPrGly]-Cysteamide)", "values": [{"measurement": "Kd", "result": 15, "unit": "µM"}, {"measurement": "Qmax", "setting": "[1]", "result": 53, "unit": "mg/mL"}]}, {"smiles": "CCCN(CC(=O)NCCS)C(=O)CN(CCc1c[nH]c2ccccc12)C(=O)CNC(=O)CN(CCCN)C(=O)CN(CCc1c[nH]c2ccccc12)C(=O)C(N)Cc1c[nH]cn1", "note": "(stereo not shown) [Ligand 16-83-5] (H-[ξH][Gly(N(CH2)2(3-indolyl))][Gly(N(CH2)3NH2)]G[Gly(N(CH2)2(3-indolyl))][NPrGly]-Cysteamide)", "values": [{"measurement": "Kd", "result": 6.5, "unit": "µM"}, {"measurement": "Qmax", "setting": "[1]", "result": 62, "unit": "mg/mL"}]}, {"smiles": "NC(=O)NCCCC(NC(=O)CN(CCc1c[nH]c2ccccc12)C(=O)CNCc1cccnc1)C(=O)NC(CCCNC(N)=O)C(=O)NCCS", "note": "(stereo not shown) [Ligand 16-84-2]", "values": [{"measurement": "Kd", "result": 6.5, "unit": "µM"}, {"measurement": "Qmax", "setting": "[1]", "result": 48, "unit": "mg/mL"}]}]}
